Here are results for two sequences from patent US20190275145A1, “PARTICULATE VACCINE FORMULATIONS” (PDS BIOTECHNOLOGY CORPORATION, priority 2011, published 2019).

The assay has as its system HPV-positive tumors (TC-1 cells). The experiment in a line: Tumor regression efficacy of R-DOTAP/S-DOTAP with HPV-16 E7 peptide antigen (encapsulated or micelles) in TC-1 tumor-bearing mice. To be noted: mouse, in vivo. As for the experimental part:
Subcutaneous HPV-positive tumors were established in mice by injecting […] TC-1 cells into the flank of each mouse on day 0. On day 6, the mice received a single subcutaneous injection of the formulations in a 0.10 ml injection.
The anti-tumor efficacy of vaccine formulations can be evaluated by evaluating tumor regression. In this example, the vaccine formulation comprises cationic lipid nanoparticles and a peptide antigen assembly in a tubular structure. Furthermore, the exemplary cationic lipid in the present example is R-DOTAP and the exemplary antigen assembly is an HPV-16 E7 micelle.
In this example, H-2Db restricted CTL epitope (amino acid 49-57, RAHYNIVTF [SEQ. ID. NO. 1]) derived from HPV 16 E7 protein was extended to amino acids 43-57, GQAEPDRAHYNIVTF, [SEQ. ID. No. 2]. SEQ. ID. No. 2 was then further extended with the amino acids KSS, and a hydrophobic palmitoyl chain was attached to the elongated peptide.
However, formulating the peptide antigen sequence into a particulate structure comprised only of SEQ. ID. No. 3 allows higher doses of the antigen to be delivered compared to delivery via a cationic lipid adjuvant delivery system. Thus, an effective means of overcoming the weak antigenicity of the peptide can be obtained.
To evaluate this approach, HPV-positive tumors were established as described in Example 3 above. […]

“GQAEPDRAHYNIVTF (listed as Homo sapiens) [SEQ. ID. No. 2, HPV 16 E7 amino acids 43-57]”: the “antigenicity when formulated and evaluated” value is on record as “weak antigen”.
“RAHYNIVTF (listed as Homo sapiens) [SEQ. ID. No. 1]”: the “antigenicity when formulated and evaluated” value is given as “weak antigen”.
